From article PMC5674125, “Towards eco-friendly crop protection: natural deep eutectic solvents and defensive secondary metabolites” (Phytochemistry Reviews, 2017)
Like-named read-outs stand apart in the source and are kept apart here.

Key:
Helicoverpa zea [1] = test system: Helicoverpa zea; design: method as in Summers and Felton (1994); settings: 4 mM, ref Summers and Felton (1994), cited from earlier work
Acanthoscelides obtectus = test system: Acanthoscelides obtectus; design: method as in Regnault-Roger et al. (2004); settings: adults, ref Regnault-Roger et al. (2004), cited from earlier work
Helicoverpa armigera [2] = test system: Helicoverpa armigera; design: method as in Joshi et al. (2014); settings: ref Joshi et al. (2014), cited from earlier work
Sitobion avanae [3] = test system: Sitobion avanae; design: method as in Leszczynski et al. (1995); settings: ref Leszczynski et al. (1995), cited from earlier work
Sitodiplosis mosellana = test system: Sitodiplosis mosellana; design: method as in Ding et al. (2000); settings: constitutive levels exceeding 0.35 µg/g fresh weight (1.57 µg/g dry weight); ref Ding et al. (2000); cited from earlier work
Choristoneura fumiferana = test system: Choristoneura fumiferana; design: method as in Grant and Langevin (2002); settings: ref Grant and Langevin (2002), cited from earlier work
Sitobion avanae [4] = test system: Sitobion avanae; design: method as in Chrzanowski et al. (2012); settings: ref Chrzanowski et al. (2012); cited from earlier work
Dalbulus maidis = test system: Dalbulus maidis; design: method as in Dowd and Vega (1996); settings: adults, 400 ppm, in vitro bioassay; ref Dowd and Vega (1996); cited from earlier work
Mamestra configurata = test system: Mamestra configurata; design: method as in Onyilagha et al. (2004); settings: applied at concentration > endogenous levels, 0.05–0.45 µmol per leaf disk, choice feeding assay; ref Onyilagha et al. (2004); cited from earlier work
Liriomyza trifolii = test system: Liriomyza trifolii; design: method as in Kashiwagi et al. (2005); settings: 4.90 µg/cm^2; ref Kashiwagi et al. (2005); cited from earlier work
[5] = Solubility in natural deep eutectic solvents (saturated solutions, UV-VIS); type: physicochemical
Experimental: As an extension of these studies, we have investigated the solubility of six insecticidal metabolites in a variety of NADES. The solvent selection framework consisted of the following steps: • Preliminary solvent screening: a pre-selected set of 20 NADES was used as a starting point to identify and rank potential NADES candidates (Table 3). Selection constraints were imposed on important properties such as viscosity and stability.
• Secondary screening: solubility tests were performed to determine the best solvent for each of the metabolites. Saturated solutions, generated by adding an excess amount of each compound to different NADES, were kept under constant stirring (1100 rpm) for 24 h at 50 °C. The 20 candidates were ranked in decreasing order of solvent power. • Solubility verification: For the verification of solubilities, samples were centrifuged for 5 min at 2000 rpm and subsequently diluted suitably with methanol for spectrophotometric analysis (UV-1800 UV–VIS spectrophotometer, Shimadzu Europe GmbH, Duisburg, Germany).

[6] = test system: Frankliniella occidentalis; design: method as in Leiss et al. (2013); settings: 25% of natural plant concentrations (0.53 mg/g); ref Leiss et al. (2013); cited from earlier work
Spodoptera exigua = test system: Spodoptera exigua; design: method as in Cipollini et al. (2008); settings: individual compound in diet plugs; ref Cipollini et al. (2008); cited from earlier work
Acyrthosiphon pisum = test system: Acyrthosiphon pisum; design: method as in Goławska and Łukasik (2012); settings: 100 µg cm^−3; ref Goławska and Łukasik (2012); cited from earlier work
Spodoptera litura [7] = test system: Spodoptera litura; design: method as in Jadhav et al. (2012); settings: 1 µg/ml; ref Jadhav et al. (2012); cited from earlier work
Helicoverpa armigera [8] = test system: Helicoverpa armigera; design: method as in Jadhav et al. (2012); settings: 1 µg/ml; ref Jadhav et al. (2012); cited from earlier work
[9] = cited from earlier work
Helicoverpa zea [10] = test system: Helicoverpa zea; design: method as in Simmonds (2003); settings: 10^−3 M; ref Simmonds (2003); cited from earlier work
Anticarsia gemmatalis = test system: Anticarsia gemmatalis; design: method as in Salvador et al. (2010); settings: 0.65% (mg/ml); ref Salvador et al. (2010); cited from earlier work
Phyllotreta cruciferae = test system: Phyllotreta cruciferae; design: method as in Onyilagha et al. (2012); settings: 1 month old flea beetle, binary feeding bioassay; ref Onyilagha et al. (2012); cited from earlier work
Spodoptera litura [11] = settings: 0.7–0.8 µg/ml; ref Mallikarjuna et al. (2004); cited from earlier work
Helicoverpa armigera [12] = test system: Helicoverpa armigera; design: method as in Simmonds (2003); settings: 10^−3 M; ref Simmonds (2003); cited from earlier work
Lymantria dispar = test system: Lymantria dispar; design: method as in Beninger and Abou-Zaid (1997); settings: 0.05%, day 15; ref Beninger and Abou-Zaid (1997); cited from earlier work
Spilarctia obliqua = test system: Spilarctia obliqua; design: method as in Tripathi et al. (2011); settings: 250 µg/g, compared with azadirachtin; ref Tripathi et al. (2011); cited from earlier work
Coptotermes formosanus = test system: Coptotermes formosanus; design: method as in Adfa et al. (2010); settings: 5 µmol; ref Adfa et al. (2010); cited from earlier work
Anopheles arabiensis = test system: Anopheles arabiensis; design: method as in Narayanaswamy et al. (2014); settings: 100 µg/ml; ref Narayanaswamy et al. (2014); cited from earlier work
Plutella xylostella = test system: Plutella xylostella; design: method as in Peterson et al. (2003); settings: ref Peterson et al. (2003); cited from earlier work
Zygogramma exclamationis = test system: Zygogramma exclamationis; design: method as in Olson and Roseland (1991); settings: topical application of 100 µg/ml; ref Olson and Roseland (1991); cited from earlier work
Delia radicum = test system: Delia radicum; design: method as in Jones et al. (1988); settings: 10 mM in buffered solution; ref Jones et al. (1988); cited from earlier work
Etiella zinckenella = test system: Etiella zinckenella; design: method as in Hattori et al. (1992); settings: 0.5 mg; ref Hattori et al. (1992); cited from earlier work

O=C(O)/C=C/c1ccc(O)c(O)c1 [Caffeic acid]
Prooxidant effect on midgut proteins (Helicoverpa zea [1]; chronic exposure): oxidative stress in midgut proteins | Development rate, survivorship and pupal weight (Helicoverpa zea [1]): Development rate, survivorship and pupal weight negatively influenced | Knockdown effect (mobility and mortality) (Acanthoscelides obtectus; in vitro bioassay): Knockdown effect: reduced mobility and increased mortality in adults (in vitro bioassay) | Body weight and survival (Helicoverpa armigera [2]; range of 50–200 ppm): Body weight and survival significantly reduced | Mode of action (Helicoverpa armigera [2]): Protease inhibitor | Phloem sap ingestion (Sitobion avanae [3]; 2.5 mM): Reduction of phloem sap ingestion at 2.5 mM

COc1cc(/C=C/C(=O)O)ccc1O [Ferulic acid]
Knockdown effect (mobility and mortality) (Acanthoscelides obtectus; day 8, in vitro bioassay): Knockdown effect: reduced mobility and increased mortality of adults at day 8 (in vitro bioassay) | Mortality of newly hatched larvae (Sitodiplosis mosellana): Constitutive levels exceeding 0.35 µg/g fresh weight (1.57 µg/g dry weight) increased mortality of newly hatched larvae | Oviposition deterrence (Choristoneura fumiferana; 7.8 nmol/cm^2, dual choice bioassay): Oviposition deterrent 7.8 nmol/cm^2 (dual choice bioassay) | Sieve element salvation (Sitobion avanae [3]; 2.5 mM): Reduced sieve element salvation at 2.5 mM | Reproductive period and daily fecundity (Sitobion avanae [4]): Prolonged reproductive period and reduced daily fecundity | Antifeedant activity (Dalbulus maidis): Antifeedant activity in adults at 400 ppm (in vitro bioassay)

O=c1c(O[C@@H]2O[C@H](CO)[C@@H](O)[C@H](O)[C@H]2O)c(-c2ccc(O)cc2)oc2cc(O[C@@H]3O[C@H](CO)[C@@H](O)[C@H](O)[C@H]3O)cc(O)c12 [Kaempferol-3,7-diglucoside]
Feeding deterrence (Mamestra configurata): Kaempferol-3,7-diglucoside acts as feeding deterrent when applied at concentration > endogenous levels; 0.05–0.45 µmol per leaf disk (choice feeding assay)

O=c1cc(-c2ccc(O)c(O)c2)oc2cc(O[C@@H]3O[C@H](CO)[C@@H](O)[C@H](O)[C@H]3O[C@@H]3OCC(O)(CO)[C@H]3O)cc(O)c12 (stereo partly drawn) [Luteolin 7-O-β -D-apiofranosyl-(1→2)-β-D-glucopyranoside]
Ovipositional deterrence (Liriomyza trifolii): Ovipositional deterrent at 4.90 µg/cm^2

O=c1cc(-c2ccc(O)c(O)c2)oc2cc(O[C@@H]3O[C@H](CO)[C@@H](O)[C@H](O)[C@H]3O)cc(O)c12 [Luteolin-7-glucoside]
Knockdown effect (mobility and mortality) (Acanthoscelides obtectus; in vitro bioassay): Toxin: knockdown effect: reduced mobility and increased mortality

O=c1cc(-c2ccc(O)c(O)c2)oc2cc(O)cc(O)c12 [Luteolin]
Solubility ([5]; 1,2-propanediol: choline chloride: water (1:1:1), water 7.71%, 24 h at 50 °C, mean ± SD, n = 3): 13.08 ± 0.86 mg/g | Solubility enhancement with NADES compared to aqueous solubility ([5]; NADES of Table 4 versus water (Table 2)): > 95 fold | Mortality of first instar larvae [6]: Significant increase in mortality of first instar larvae at 25% of natural plant concentrations (0.53 mg/g) | Anti-herbivory activity (Spodoptera exigua): no anti-herbivory activity was observed | Feeding (Spodoptera exigua): marginally stimulating feeding | Probing and feeding deterrence (Acyrthosiphon pisum): Probing and feeding deterrent at 100 µg cm^−3

C[C@@H]1O[C@@H](OC[C@H]2O[C@@H](Oc3c(-c4ccc(O)c(O)c4)oc4cc(O)cc(O)c4c3=O)[C@H](O)[C@@H](O)[C@@H]2O)[C@H](O)[C@H](O)[C@H]1O [Rutin]
Larval development, pupal mortality, adult malformation (Spodoptera litura [7]): Larval development arrested, increased pupal mortality and malformation of adults at 1 µg/ml | Solubility ([5]; 1,2-propanediol: choline chloride: water (1:1:3), water 20.04%, 24 h at 50 °C, mean ± SD, n = 3): 18.46 ± 0.67 mg/g | Solubility increase compared to water ([5]; PCH (1:1:3) versus water (Tables 2, 4)): fivefold | Feeding and larval growth (Helicoverpa armigera [8]): Cessation of feeding inhibits larval growth (1 µg/ml) | Solubility in NADES diluted with water ([9]; diluted with 5–10% of water, ref Dai et al. (2013)): higher solubility | Solubility in NADES compared to aqueous solubility ([9]; ref Dai et al. (2013, 2015)): significantly increased | Knockdown effect (mobility and mortality) (Acanthoscelides obtectus; in vitro bioassay): Knockdown effect in bioassay: reduced mobility and increased mortality of adults | Feeding deterrence (Helicoverpa zea [10]): Feeding deterrent at 10^−3 M | Larval development, amount of food consumed, pupal weight (Anticarsia gemmatalis): Larval development, amount of food consumed, and pupal weight were negatively influenced at 0.65% (mg/ml) | Feeding deterrence (Phyllotreta cruciferae): Feeding deterrent of 1 month old flea beetle (binary feeding bioassay) | Development (Spodoptera litura [11]): Developmental retardation | Larval mortality (Spodoptera litura [11]): > 60% | Feeding deterrence (Helicoverpa armigera [12]): Feeding deterrent at 10^−3 M | Larval weight reduction (Lymantria dispar): Larval growth inhibitor. Larval weight reduced by 45% at 0.05% at day 15

COc1cc2ccc(=O)oc2cc1O [Scopoletin]
Antifeedant and growth inhibitory activity (Spilarctia obliqua): Antifeedant and growth inhibitor. At 250 µg/g deterrence and growth inhibition was similar to that of azadirachtin | Termicidal and antifeedant effects (Coptotermes formosanus): Termicidal and antifeedant effects at 5 µmol | Repellent activity (Anopheles arabiensis): Repellent activity at 100 µg/ml | Antibiosis (growth inhibitor), concentration in diet (Plutella xylostella): > 2500 µg/g diet | LD50 (Plutella xylostella): ~8300 µg/mL | Feeding deterrence (preference) (Zygogramma exclamationis): Phytoalexin: feeding deterrent. Topical application of 100 µg/ml reduces preference | Phloem sap ingestion (Sitobion avanae [3]; 2.5 mM): Reduced ingestion of phloem sap at 2.5 mM

COc1cc(/C=C/C(=O)O)cc(OC)c1O [Sinapic acid]
Solubility [5]: 21.59 ± 0.24 mg/g | Solubility enhancement with NADES compared to aqueous solubility [5]: > 34 fold | Reduction of number of eggs (oviposition deterrent) (Delia radicum): Oviposition deterrent; 10 mM in buffered solution reduced number of eggs by 60–70% | Mortality of first instar larvae [6]: Significant increase in mortality of first instar larvae at 25% of natural plant concentrations (0.53 mg/g) | Oviposition deterrence (Choristoneura fumiferana; 78.6 nmol/cm^2): Oviposition deterrent at 78.6 nmol/cm^2 | Phloem sap ingestion (Sitobion avanae [3]; 2.5 mM): Reduced ingestion of phloem sap at 2.5 mM

O=C(O)C=Cc1ccc(O)cc1 [p-Coumaric acid]
Oviposition deterrence (Etiella zinckenella): Oviposition deterrent at 0.5 mg | Phloem sap ingestion (Sitobion avanae [3]; concentration not given): Reduction ingestion of phloem sap | Antifeedant activity (Dalbulus maidis): Antifeedant activity in adults at 400 ppm (in vitro bioassay)
